Where two headings read alike, the source gives them in different places.
Molecular target: T1, Bombyx mori EcR (VP16 fusion, CVBE switch construct) (Bombyx mori, UniProt P49881)
T1 sequence (P49881 86-606): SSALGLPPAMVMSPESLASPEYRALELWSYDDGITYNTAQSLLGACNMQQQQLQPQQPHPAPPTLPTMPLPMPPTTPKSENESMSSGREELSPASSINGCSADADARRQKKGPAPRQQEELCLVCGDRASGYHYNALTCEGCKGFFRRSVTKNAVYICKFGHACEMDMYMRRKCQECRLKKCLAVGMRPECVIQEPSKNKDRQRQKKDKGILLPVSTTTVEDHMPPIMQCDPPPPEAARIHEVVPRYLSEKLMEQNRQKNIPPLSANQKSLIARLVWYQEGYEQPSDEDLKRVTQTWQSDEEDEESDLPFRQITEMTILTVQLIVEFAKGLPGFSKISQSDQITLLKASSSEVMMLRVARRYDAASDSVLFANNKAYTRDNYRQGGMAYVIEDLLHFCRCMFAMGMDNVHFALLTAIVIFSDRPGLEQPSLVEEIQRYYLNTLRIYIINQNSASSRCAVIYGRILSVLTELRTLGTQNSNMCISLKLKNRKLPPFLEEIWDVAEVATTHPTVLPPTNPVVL
T1 sequence (P19793 1-462 partner): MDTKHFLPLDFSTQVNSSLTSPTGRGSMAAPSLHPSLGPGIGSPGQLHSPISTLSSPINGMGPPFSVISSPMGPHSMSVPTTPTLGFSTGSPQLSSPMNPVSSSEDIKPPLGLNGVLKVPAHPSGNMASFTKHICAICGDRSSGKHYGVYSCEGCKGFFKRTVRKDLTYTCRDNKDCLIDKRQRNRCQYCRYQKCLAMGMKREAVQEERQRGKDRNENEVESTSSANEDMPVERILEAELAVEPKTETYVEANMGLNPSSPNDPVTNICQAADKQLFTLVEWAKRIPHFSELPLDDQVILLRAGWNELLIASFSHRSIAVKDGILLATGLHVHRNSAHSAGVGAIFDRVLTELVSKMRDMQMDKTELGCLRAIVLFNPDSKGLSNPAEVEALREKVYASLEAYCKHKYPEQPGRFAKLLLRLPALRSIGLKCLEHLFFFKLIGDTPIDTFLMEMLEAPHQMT
Assay: Z3 Assay (HEK-293 cells with CVBE and 6XEcRE LacZ, β-galactosidase reporter)
Details: for Fold Induction, Z3 Assay, 3.3 uM: 3.3 uM ligand; for Fold Induction, Z3 Assay, 3.3 uM / Fold Induction, Z3 Assay, 33 uM: ligand treated / DMSO treated cells; for Fold Induction, Z3 Assay, 33 uM: 33 uM ligand; for Z3 assay Rel Max FI: maximum fold induction at any concentration relative to that of GS-E ligand

[1] = read-out: Z3 assay EC50, HEK-293 Z3 cells, β-galactosidase reporter, average of two wells

SMILES | Fold Induction, Z3 Assay, 3.3 uM (average of two wells) | Fold Induction, Z3 Assay, 33 uM (average of two wells) | Z3 assay Rel Max FI (HEK-293 Z3 cells) | EC50 [1] | EC50 | fold induction at 3.3 µM (HEK293, read-out: Fold Induction, Z3 Assay, 3.3 uM) | fold induction at 33 µM (HEK293, read-out: Fold Induction, Z3 Assay, 33 uM)
Cc1c(C(=O)NN(C(=O)c2ccc(F)cc2)C(C)(C)C)ccc2c1CCCO2 [RG-115118] | 90 | 1160 | 0.969 | 234 nM |  |  | 
CCc1c(C(=O)NN(C(=O)c2cc(OC)c(C)c(OC)c2)C(C)(C)C)ccc2c1OCCO2 [RG-115130] | 412 | 930 |  | 36 nM |  |  | 
CCc1c(OC)cccc1C(=O)NN(C(=O)c1cc(C)cc(C)c1)C(C)(C)CO [RG-115143] | 111 | 1045 | 0.844 | 7410 nM |  |  | 
CCc1c(OC)cccc1C(=O)NN(C(=O)c1cc(C)ccc1[N+](=O)[O-])C(C)(C)C [RG-115162] | 334 | 772 | 0.988 | 69 nM |  |  | 
Cc1c(C(=O)NN(C(=O)c2cc(F)cc(F)c2)C(C)(C)C)ccc2c1CCCO2 [RG-115207] | 354 | 508 | 0.923 | 257 nM |  |  | 
CCc1c(OC)cccc1C(=O)NN(C(=O)c1cc(C)cc(COC(C)=O)c1)C(C)(C)C [RG-115223] | 323 | 1299 | 0.925 | 1900 nM |  |  | 
Cc1c(C(=O)NN(C(=O)c2cc(F)c(F)cc2F)C(C)(C)C)ccc2c1CCCO2 [RG-115229] |  | 1032 |  | 427 nM |  |  | 
CCc1c(C(=O)NN(C(=O)c2ccccc2OC)C(C)(C)C)ccc2c1OCCO2 [RG-115244] | 283 | 816 | 0.959 | 85 nM |  |  | 
CCc1c(OC)cccc1C(=O)NN(C(=O)c1cc(Cl)ccc1OC)C(C)(C)C [RG-115253] |  | 832 |  | 269 nM |  |  | 
CCc1c(OC)cccc1C(=O)NN(C(=O)c1cc(Cl)ccc1[N+](=O)[O-])C(C)(C)C [RG-115257] | 297 | 691 | 0.885 | 204 nM |  |  | 
CCc1c(OC)cccc1C(=O)NN(C(=O)c1cc(C)cc(C)c1)C(C)(C)C=NO [RG-115258, 2-ethyl-3-methoxy-benzoic acid N′-(3,5-dimethyl-benzoyl)-N′-(2-hydroxyimino-1,1-dimethyl-ethyl)-hydrazide] |  |  | 0.882 |  | 646 nM | 382 | 1120
Cc1c(C(=O)NN(C(=O)c2cccc(F)c2)C(C)(C)C)ccc2c1CCCO2 [RG-115278] | 158 | 1225 | 0.893 | 257 nM |  |  | 
CCc1c(C(=O)NN(C(=O)c2ccc(F)c(C(F)(F)F)c2)C(C)(C)C)ccc2c1OCCO2 [RG-115280] |  | 376 |  |  |  |  | 
CCc1c(C(=O)NN(C(=O)c2cc(Cl)nc(Cl)c2)C(C)(C)C)ccc2c1OCCO2 [RG-115297] | 443 | 604 | 0.872 | 66 nM |  |  | 
CCc1c(OC)cccc1C(=O)NN(C(=O)c1cc(F)c(Cl)cc1Cl)C(C)(C)C [RG-115302] |  | 404 |  | 275 nM |  |  | 
COc1cccc(C(=O)NN(C(=O)c2cc(C)cc(C)c2)C(C)(C)C)c1N [RG-115378] | 488 | 1464 | 0.947 | 324 nM |  |  | 
Cc1ccc([N+](=O)[O-])c(C(=O)N(NC(=O)c2ccc3c(c2C)OCCO3)C(C)(C)C)c1 [RG-115384] | 337 |  | 0.904 | 166 nM |  |  | 

Reference: US9102648B1, “Bioavailable diacylhydrazine ligands for modulating the expression of exogenous genes via an ecdysone receptor complex” (Intrexon Corporation, priority 2003, dated 2015)
